Patent publication US8236827B2, “Compounds” (Spear Therapeutics Limited, priority 2009, dated 2012)

Columns and labels:
[1] = target: T1, CYP1A2 (Homo sapiens, UniProt P05177); assay: CYP phenotyping, metabolic stability; assay type: in vitro ADME; details: CYP1A2 (40 pm/mL)
T1 sequence (P05177 1-516): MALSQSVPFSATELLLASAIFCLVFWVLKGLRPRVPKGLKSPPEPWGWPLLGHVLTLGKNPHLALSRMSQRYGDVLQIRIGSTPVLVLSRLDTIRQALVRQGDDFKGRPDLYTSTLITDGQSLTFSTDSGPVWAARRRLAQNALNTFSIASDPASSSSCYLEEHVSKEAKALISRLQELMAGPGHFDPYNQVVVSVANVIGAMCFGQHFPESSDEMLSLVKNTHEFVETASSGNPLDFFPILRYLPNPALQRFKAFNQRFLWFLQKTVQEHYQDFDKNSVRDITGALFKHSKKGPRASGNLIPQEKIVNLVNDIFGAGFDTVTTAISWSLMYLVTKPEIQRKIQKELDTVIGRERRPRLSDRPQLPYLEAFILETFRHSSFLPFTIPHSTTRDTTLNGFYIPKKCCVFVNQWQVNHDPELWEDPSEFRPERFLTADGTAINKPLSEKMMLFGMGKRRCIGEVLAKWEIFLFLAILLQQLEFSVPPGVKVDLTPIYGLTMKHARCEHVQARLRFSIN
Procedure: (§1) As mentioned above, a feature of the compounds of the invention is their metabolism by CYP1B1 which is expressed at high frequency in a wide range of human cancers of different histogenetic types, but not in normal tissues. […] Compounds V and II were exposed to a panel of six CYPs (see Table 5 below).
(§2) CYP metabolism studies were performed by Cerep Laboratories (Redmond, Wash., USA). Compounds were screened in duplicate at 1 μM in the presence of CYP enzyme, NADP (1.3 mM), D-Glucose-6-phosphate (3.3 mM) and Glucose-6-phosphate dehydrogenase. Following incubation at 0 and 60 minutes, parent compound levels were determined using standard HPLC/MS/MS procedures. The results are expressed as percent parent compound remaining after 60 minutes.

[2] = tested on: wild-type CHO cells; assay: Cytotoxicity (MTS) in wild-type CHO cells; assay type: cell-based, Chinese Hamster
Procedure: CHO cells: Chinese Hamster Ovary (CHO) DUKXB11 cells were grown under standard cell culture conditions in α-MEM supplemented with 10% FCS, 1 unit/ml each of hypoxanthine and thymidine, and penicillin (100 IU/ml) and streptomycin (100 μg/ml) according to literature methods (Ding S, et al., Arch. Biochem. Biophys., 348: 403-410, 1997, the contents of which are incorporated herein by reference). Cells were grown at 37° C. in a humidified atmosphere plus 5% CO2.
(§3) A single cell suspension of CHO, CHO/CYP1A1 or CHO/CYP1B1 in 100 μl of the required cell culture medium was seeded onto 96-well plates at a cell density of 1500 cells per well and placed in an incubator for 24 h at 37° C. The stock solution of test compound in DMSO was then added to give a concentration range of 100, 30, 10, 3, 1, 0.3, 0.1, 0.03, 0.01, 0.003, 0.001, 0 μM. The final concentration of DMSO 0.2% was found not to affect the growth characteristics of the various CHO cell lines. The cells were incubated with the test compound for 96 h after which all the medium was aspirated and replaced with 100 μl of fresh medium to compensate for the loss of medium due to evaporation. The cells were incubated with 20 μl of the MTS assay reagent for 1.5 h and the absorbance per well at 510 nm measured using a plate reader. The mean absorbance and standard deviation for each test compound concentration was calculated versus a series of controls including (a) cells plus medium, (b) cell plus medium containing DMSO 0.2%, (c) medium alone, and (d) medium containing DMSO 0.2% and a range of test compound concentrations from 0 to 100 μM.
(§4) The MTS assay is a homogeneous, colorimetric method for determining the number of viable cells in proliferation, cytotoxicity or chemosensitivity assays (Cali J J, et al., “Luminescence-Based Methods and Probes for Measuring Cytochrome P450 Activity”, pp. 1-29. Promega Corporation, United States, 2004, the contents of which are incorporated herein by reference). The assay is composed of solutions of tetrazolium compound [3-(4,5-dimethylthiazol-2-yl)-5-(3-carboxymethoxyphenyl)-2-(4-sulfophenyl)-2H-tetrazolium, inner salt; MTS] and an electron coupling reagent (phenazine methosulfate) PMS. MTS is bioreduced by cells into a formazan product that is soluble in tissue culture medium. The absorbance of the formazan product at 510 nm can be directly measured from 96-well assay plates. The quantity of formazan product as measured by the amount of absorbance at 490 or 510 nm is directly proportional to the number of living cells in culture.

[3] = Cytotoxicity (MTS) in CHO/CYP1A1 cells; assay type: cell-based, Chinese Hamster; details: Chinese hamster; 96 h, MTS
Procedure: (§5) CHO/CYP1A1 and CHO/CYP1B1 cells: CHO cells containing recombinant CYP1A1 and recombinant CYP1B1 co-expressing P450 reductase, namely (CHO/CYP1A1) and (CHO/CYP1B1) respectively, were cultured using the standard culture medium for CHO cells supplemented with 0.4 mg/ml G418 disulfate salt and 0.3 μM methotrexate (Sigma/Aldrich Co., Gillingham, Dorset, UK) according to methods described in the literature (ibid.) Cells were grown at 37° C. in a humidified atmosphere plus 5% CO2.
as §3, §4

[4] = tested on: CHO/CYP1A1 cells; assay: Cytotoxicity (MTS) in CHO/CYP1A1 cells; assay type: cell-based, Chinese Hamster
Procedure: as §5, §3, §4

[5] = Cytotoxicity (MTS) in CHO/CYP1B1 cells; assay type: cell-based, Chinese Hamster; details: Chinese hamster; 96 h, MTS; read-out: CHO/CYP1B1 IC50
Procedure: as §5, §3, §4

[6] = tested on: CHO/CYP1B1 cells; assay: Cytotoxicity (MTS) in CHO/CYP1B1 cells; assay type: cell-based, Chinese Hamster
Procedure: as §5, §3, §4

[7] = target: CYP2C19 (Homo sapiens, UniProt P33261); assay: CYP phenotyping, metabolic stability; assay type: in vitro ADME; details: CYP2C19 (10 pm/mL); 1 μM; after 60 minutes
Procedure: (§6) Compounds V and II were exposed to a panel of six CYPs (see Table 5 below).
as §2

[8] = target: CYP2C9 (Homo sapiens, UniProt P11712); assay: CYP phenotyping, metabolic stability; assay type: in vitro ADME; details: CYP2C9 (10 pm/mL); 1 μM; after 60 minutes
Procedure: as §6, §2

[9] = target: CYP2D6 (Homo sapiens, UniProt P10635); assay: CYP phenotyping, metabolic stability; assay type: in vitro ADME; details: CYP2D6 (10 pm/mL); 1 μM; after 60 minutes
Procedure: as §6, §2

[10] = target: CYP3A4 (Homo sapiens, UniProt P08684); assay: CYP phenotyping, metabolic stability; assay type: in vitro ADME; details: CYP3A4 (10 pm/mL); 1 μM; after 60 minutes
Procedure: as §6, §2

[11] = target: CYP3A5 (Homo sapiens, UniProt P20815); assay: CYP phenotyping, metabolic stability; assay type: in vitro ADME; details: CYP3A5 (10 pm/mL); 1 μM; after 60 minutes
Procedure: as §1, §2

[12] = tested on: UTSCC-14 xenograft tumours; assay: UTSCC-14 xenograft study in nu/nu mice; assay type: in vivo; details: 7, 20, 50 mg/kg i.p. daily for 29 days; tumours excised day 40; versus vehicle control
Procedure: The study compared the efficacy of Compound II with a vehicle control in UTSCC-14 xenograft tumours at three different dose levels.
Forty female nu/nu mice (7-9 wks old, weight 20-25 grams) were implanted sc with 2e6 UTSCC-14 cells and randomized 10 days later into […] (Table 1) with an approximate tumour volume of 100-150 mm-3. All groups were dosed daily ip for 29 days. On day 40 tumours were excised and weighed.
The UTSCC-14 cells used in the experiment were sourced from Professor Reidar Grénman's laboratory at the University of Turku, Department of Head and Neck Surgery, Turku University, Turku, Finland) and taken from a grade II primary tumour from the tongue of a head and neck cancer patient.
Compound II was dissolved/suspended in 100% cell culture grade DMSO at 40 mg/ml, before dilution with ddH20 immediately prior to dosing to make a stock 50% DMSO/Water solution. This stock solution was used to prepare all doses by dilution with 50% DMSO/Water to achieve the required concentration.
FIG. 2 compares the weight in grams of tumours excised on day 40 of the study. […] The study provides evidence that Compound II (and related compounds described here) are useful in the development of novel cancer therapies.

[13] = target: C-Met (HGFR) (Homo sapiens, UniProt P08581); assay: Cerep kinase screen; assay type: biochemical; details: read-out: % Inhibition of Control
Procedure: (§7) Kinase screening was performed by Cerep Laboratories (Celle l′Evescault, France). Compounds were screened in duplicate at a single concentration (10 μM). The results, set forth in Table 4 below, are expressed as percent inhibition of control specific activity: {100−[(measured specific activity/control specific activity)×100]} obtained in the presence of Compound XI and Compound V. ATP concentrations correspond to the ATP Km value for each individual kinase (Cerep, private communication). In each experiment, a reference compound was tested concurrently with Compound XI and Compound V in order to assess the assay reliability. IC50 values for the reference compounds were within accepted limits (±0.5 log units) of the historic average.

[14] = target: CSK (Homo sapiens, UniProt P41240); assay: Cerep kinase screen; assay type: biochemical; details: read-out: % Inhibition of Control
Procedure: as §7

[15] = target: FGFR2 (Homo sapiens, UniProt P21802); assay: Cerep kinase screen; assay type: biochemical; details: read-out: % Inhibition of Control
Procedure: as §7

[16] = target: FGFR4 (Homo sapiens, UniProt P22455); assay: Cerep kinase screen; assay type: biochemical; details: read-out: % Inhibition of Control
Procedure: as §7

[17] = target: FLT-1 (Homo sapiens, UniProt P17948); assay: Cerep kinase screen; assay type: biochemical; details: read-out: % Inhibition of Control
Procedure: as §7

[18] = target: FLT-3 (Homo sapiens, UniProt P36888); assay: Cerep kinase screen; assay type: biochemical; details: read-out: % Inhibition of Control
Procedure: as §7

[19] = target: Fyn (Homo sapiens, UniProt P06241); assay: Cerep kinase screen; assay type: biochemical; details: read-out: % Inhibition of Control
Procedure: as §7

[20] = target: KDR (VEGFR2) (Homo sapiens, UniProt P35968); assay: Cerep kinase screen; assay type: biochemical; details: read-out: % Inhibition of Control
Procedure: as §7

[21] = target: Lyn (Homo sapiens, UniProt P07948); assay: Cerep kinase screen; assay type: biochemical; details: read-out: % Inhibition of Control
Procedure: as §7

[22] = target: PDGFRβ (Homo sapiens, UniProt P09619); assay: Cerep kinase screen; assay type: biochemical; details: read-out: % Inhibition of Control
Procedure: as §7

CYP2C19, sequence (P33261 whole entry, species assumed): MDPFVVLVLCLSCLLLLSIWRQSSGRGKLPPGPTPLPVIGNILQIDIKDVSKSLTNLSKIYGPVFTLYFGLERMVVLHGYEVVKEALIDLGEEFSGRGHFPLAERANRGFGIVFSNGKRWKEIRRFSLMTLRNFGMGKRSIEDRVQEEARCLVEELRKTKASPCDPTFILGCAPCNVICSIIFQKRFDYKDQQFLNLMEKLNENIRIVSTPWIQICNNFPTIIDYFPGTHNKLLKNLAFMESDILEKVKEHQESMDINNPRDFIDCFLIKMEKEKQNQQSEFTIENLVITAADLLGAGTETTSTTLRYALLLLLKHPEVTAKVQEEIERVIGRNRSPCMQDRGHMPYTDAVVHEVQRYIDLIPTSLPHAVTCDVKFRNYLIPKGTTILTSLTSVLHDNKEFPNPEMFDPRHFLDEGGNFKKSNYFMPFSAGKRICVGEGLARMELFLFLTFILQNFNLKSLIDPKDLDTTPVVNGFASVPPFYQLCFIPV
FGFR2, sequence (P21802 22-821, species assumed): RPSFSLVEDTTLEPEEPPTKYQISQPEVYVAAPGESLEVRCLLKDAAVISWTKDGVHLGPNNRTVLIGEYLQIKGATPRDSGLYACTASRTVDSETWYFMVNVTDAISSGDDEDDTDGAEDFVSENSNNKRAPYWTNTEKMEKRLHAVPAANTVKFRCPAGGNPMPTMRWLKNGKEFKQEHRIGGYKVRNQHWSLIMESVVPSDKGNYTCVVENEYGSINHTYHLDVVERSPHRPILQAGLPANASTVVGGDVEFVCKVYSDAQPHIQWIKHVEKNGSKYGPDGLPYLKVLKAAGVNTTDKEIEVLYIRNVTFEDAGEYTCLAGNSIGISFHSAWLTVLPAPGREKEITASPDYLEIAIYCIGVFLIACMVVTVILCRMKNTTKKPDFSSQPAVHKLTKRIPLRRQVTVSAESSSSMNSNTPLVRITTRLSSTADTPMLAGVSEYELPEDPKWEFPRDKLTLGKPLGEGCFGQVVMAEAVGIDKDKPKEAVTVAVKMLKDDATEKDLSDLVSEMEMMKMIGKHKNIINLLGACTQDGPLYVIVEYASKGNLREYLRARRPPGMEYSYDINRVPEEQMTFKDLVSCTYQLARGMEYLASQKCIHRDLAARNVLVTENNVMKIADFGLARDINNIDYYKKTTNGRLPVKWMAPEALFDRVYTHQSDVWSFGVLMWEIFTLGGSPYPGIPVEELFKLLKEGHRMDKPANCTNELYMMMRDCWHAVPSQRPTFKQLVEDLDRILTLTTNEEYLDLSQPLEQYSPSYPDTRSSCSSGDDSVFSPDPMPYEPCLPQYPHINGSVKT
CYP2D6, sequence (P10635 whole entry, species assumed): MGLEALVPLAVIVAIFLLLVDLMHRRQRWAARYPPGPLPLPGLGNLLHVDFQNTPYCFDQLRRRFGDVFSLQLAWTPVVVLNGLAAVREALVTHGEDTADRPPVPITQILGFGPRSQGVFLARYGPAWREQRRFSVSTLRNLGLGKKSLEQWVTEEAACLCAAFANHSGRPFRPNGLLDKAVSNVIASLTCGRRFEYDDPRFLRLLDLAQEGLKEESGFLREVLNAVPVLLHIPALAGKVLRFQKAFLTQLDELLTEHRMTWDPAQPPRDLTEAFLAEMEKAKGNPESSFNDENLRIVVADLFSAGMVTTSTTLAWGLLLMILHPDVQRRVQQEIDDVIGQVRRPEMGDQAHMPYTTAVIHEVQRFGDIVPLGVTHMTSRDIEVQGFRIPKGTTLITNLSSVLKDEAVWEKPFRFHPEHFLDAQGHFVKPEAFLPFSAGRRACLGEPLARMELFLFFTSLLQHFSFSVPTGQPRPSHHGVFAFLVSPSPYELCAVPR
C-Met (HGFR), sequence (P08581 25-1390): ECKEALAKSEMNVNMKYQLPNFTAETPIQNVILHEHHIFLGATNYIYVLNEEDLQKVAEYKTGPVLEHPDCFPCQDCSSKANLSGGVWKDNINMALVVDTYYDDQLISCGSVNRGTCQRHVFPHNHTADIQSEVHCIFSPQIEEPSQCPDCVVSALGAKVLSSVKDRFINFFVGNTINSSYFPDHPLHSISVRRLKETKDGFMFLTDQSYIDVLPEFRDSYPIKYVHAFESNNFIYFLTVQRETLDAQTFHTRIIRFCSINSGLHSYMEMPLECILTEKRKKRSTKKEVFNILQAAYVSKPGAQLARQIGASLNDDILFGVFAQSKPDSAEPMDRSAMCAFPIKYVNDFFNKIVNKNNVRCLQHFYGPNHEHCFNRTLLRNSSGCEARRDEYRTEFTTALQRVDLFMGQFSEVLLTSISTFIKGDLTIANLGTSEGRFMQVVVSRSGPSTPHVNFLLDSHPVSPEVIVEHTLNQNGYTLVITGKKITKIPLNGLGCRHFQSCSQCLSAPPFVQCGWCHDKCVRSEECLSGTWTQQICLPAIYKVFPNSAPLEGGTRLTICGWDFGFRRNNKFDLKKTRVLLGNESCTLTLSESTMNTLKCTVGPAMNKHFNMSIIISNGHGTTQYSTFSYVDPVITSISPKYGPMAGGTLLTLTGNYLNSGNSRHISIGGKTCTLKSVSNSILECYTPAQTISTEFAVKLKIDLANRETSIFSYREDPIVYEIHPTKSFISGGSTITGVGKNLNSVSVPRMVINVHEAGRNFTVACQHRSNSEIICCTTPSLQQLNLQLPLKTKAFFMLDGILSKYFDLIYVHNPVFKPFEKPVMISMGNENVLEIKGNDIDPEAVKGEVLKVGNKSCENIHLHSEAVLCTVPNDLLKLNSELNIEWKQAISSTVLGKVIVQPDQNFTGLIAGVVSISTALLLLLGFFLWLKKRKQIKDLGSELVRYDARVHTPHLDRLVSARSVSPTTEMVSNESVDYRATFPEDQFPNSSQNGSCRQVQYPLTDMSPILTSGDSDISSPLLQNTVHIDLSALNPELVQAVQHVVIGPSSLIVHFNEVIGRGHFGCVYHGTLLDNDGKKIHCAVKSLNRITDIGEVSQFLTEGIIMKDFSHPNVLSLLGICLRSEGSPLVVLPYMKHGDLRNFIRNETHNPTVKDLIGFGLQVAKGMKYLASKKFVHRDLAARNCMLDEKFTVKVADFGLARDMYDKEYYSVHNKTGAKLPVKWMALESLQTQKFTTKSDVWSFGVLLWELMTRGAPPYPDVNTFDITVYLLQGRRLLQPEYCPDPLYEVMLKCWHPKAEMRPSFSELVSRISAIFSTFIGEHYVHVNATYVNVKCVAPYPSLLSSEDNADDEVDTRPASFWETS
Lyn, sequence (P07948 whole entry, species assumed): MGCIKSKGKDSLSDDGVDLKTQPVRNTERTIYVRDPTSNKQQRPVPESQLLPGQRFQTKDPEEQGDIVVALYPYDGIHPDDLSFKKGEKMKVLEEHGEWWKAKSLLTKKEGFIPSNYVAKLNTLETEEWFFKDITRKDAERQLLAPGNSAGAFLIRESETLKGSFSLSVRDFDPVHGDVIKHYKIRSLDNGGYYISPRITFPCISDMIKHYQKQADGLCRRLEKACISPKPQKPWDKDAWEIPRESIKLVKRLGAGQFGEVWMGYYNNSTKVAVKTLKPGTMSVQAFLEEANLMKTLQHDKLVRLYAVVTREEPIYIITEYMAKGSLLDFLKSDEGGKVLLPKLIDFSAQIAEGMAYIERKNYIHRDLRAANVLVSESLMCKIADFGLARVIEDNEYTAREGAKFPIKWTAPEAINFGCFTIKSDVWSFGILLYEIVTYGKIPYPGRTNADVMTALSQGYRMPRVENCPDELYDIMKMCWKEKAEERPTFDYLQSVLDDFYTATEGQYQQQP
CYP3A5, sequence (P20815 whole entry, species assumed): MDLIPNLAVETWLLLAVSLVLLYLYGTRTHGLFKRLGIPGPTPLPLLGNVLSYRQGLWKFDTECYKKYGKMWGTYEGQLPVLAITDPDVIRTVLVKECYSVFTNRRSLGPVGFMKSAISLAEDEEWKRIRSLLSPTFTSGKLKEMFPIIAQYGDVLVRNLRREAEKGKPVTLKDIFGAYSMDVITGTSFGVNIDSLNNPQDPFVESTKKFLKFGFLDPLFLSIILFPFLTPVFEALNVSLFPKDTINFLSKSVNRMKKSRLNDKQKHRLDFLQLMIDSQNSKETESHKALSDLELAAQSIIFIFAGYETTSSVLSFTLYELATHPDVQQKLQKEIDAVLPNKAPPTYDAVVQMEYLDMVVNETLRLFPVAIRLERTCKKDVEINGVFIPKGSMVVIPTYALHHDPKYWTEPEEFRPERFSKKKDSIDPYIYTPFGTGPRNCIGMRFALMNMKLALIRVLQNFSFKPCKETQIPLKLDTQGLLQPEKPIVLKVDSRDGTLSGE
CYP3A4, sequence (P08684 whole entry, species assumed): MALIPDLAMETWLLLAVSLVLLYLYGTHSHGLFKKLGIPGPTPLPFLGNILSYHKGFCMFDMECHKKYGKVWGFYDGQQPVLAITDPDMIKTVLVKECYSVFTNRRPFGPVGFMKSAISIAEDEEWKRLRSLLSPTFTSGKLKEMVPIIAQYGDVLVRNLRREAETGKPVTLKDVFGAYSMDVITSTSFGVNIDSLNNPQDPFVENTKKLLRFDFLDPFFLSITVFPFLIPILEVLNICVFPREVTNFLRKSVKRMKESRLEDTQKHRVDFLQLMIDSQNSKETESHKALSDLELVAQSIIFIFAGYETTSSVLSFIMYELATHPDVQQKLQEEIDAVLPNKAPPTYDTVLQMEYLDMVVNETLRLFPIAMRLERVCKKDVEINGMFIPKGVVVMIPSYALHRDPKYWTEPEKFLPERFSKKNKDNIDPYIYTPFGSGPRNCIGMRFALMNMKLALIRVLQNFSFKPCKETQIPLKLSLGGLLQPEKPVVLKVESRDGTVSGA

SMILES: CCOc1ccc2nc3ccc(=O)cc-3oc2c1 [Ethoxy-resorufin, 7-ethoxyresorufin, reference compound]
- % Reference Compound Remaining ([1]; reference compound): 0%

SMILES: CCCOc1ccc(-c2cc(-c3ccc(OC)c(OC)c3)[nH]c(=O)c2)cc1 [Compound II]
- toxicity to wild-type CHO cells (in words) [2]: non toxic
- IC50 ([2]; Cricetulus griseus, CHO, 96 h, MTS): > 50 µM
- IC50 at 96 h [3]: > 50 µM
- toxicity / activity in CYP1A1 expressing CHO cells (in words) [4]: non toxic
- IC50 at 96 h [5]: 0.09 ± 0.05 µM
- activity against CHO/CYP1B1 cells (in words) [6]: strongly inhibit proliferation
- Mean Parent Remaining (%) [7]: 127%
- Mean Parent Remaining (%) [8]: 130%
- Mean Parent Remaining (%) [9]: 127%
- Mean Parent Remaining (%) [10]: 122%
- Mean Parent Remaining (%) ([1]; 1 μM, after 60 minutes): 69%
- Mean Parent Remaining (%) [11]: 126%
- wet tumour weight at the end of the study (FIG. 2) [12]: dose dependent reduction in wet tumour weight

SMILES: COc1ccc(-c2cc(-c3ccc(O)c(O)c3)cc(=O)[nH]2)cc1OC [Compound XI]
- inhibition at 10 µM [13]: 58%
- inhibition at 10 µM [14]: 98%
- inhibition at 10 µM [15]: 98%
- inhibition at 10 µM [16]: 85%
- inhibition at 10 µM [17]: 98%
- inhibition at 10 µM [18]: 93%
- inhibition at 10 µM [19]: 100%
- inhibition at 10 µM [20]: 96%
- inhibition at 10 µM [21]: 99%
- inhibition at 10 µM [22]: 91%
